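Exposure lasted 48 hours, with cells grown in 96-well plates and compounds tested at five concentrations. Abbreviation: GI50, concentration required for 50% inhibition of growth. TGI: concentration producing complete growth inhibition.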
Columns and labels:
Assay in all cases: inhibition of tumour cell growth, NCI panel, 48 h
786-0 renal = system: 786-0 renal
A549 NSCLC = system: A549 NSCLC
ACHN renal = system: ACHN renal
BT-549 breast = system: BT-549 breast
CAKI-1 renal = system: CAKI-1 renal
COLO 205 colon = system: COLO 205 colon
DU-145 prostate = system: DU-145 prostate
EKVX NSCLC = system: EKVX NSCLC
HCC-2998 colon = system: HCC-2998 colon
HCT-116 colon = system: HCT-116 colon
HCT-15 colon = system: HCT-15 colon
HOP-62 NSCLC = system: HOP-62 NSCLC
HS 578T breast = system: HS 578T breast
HT29 colon = system: HT29 colon
K-562 leukemia = system: K-562 leukemia
KM12 colon = system: KM12 colon
MALME-3M melanoma = system: MALME-3M melanoma
MCF7 breast = system: MCF7 breast
MDA-MB-231 breast = system: MDA-MB-231 breast
MDA-MB-435 = system: MDA-MB-435
NCI-H23 lung = system: NCI-H23 lung
NCI-H460 lung = system: NCI-H460 lung
NCI-H522 lung = system: NCI-H522 lung
NCI/ADR-RES ovarian = system: NCI/ADR-RES ovarian
OVCAR-3 ovarian = system: OVCAR-3 ovarian
OVCAR-4 ovarian = system: OVCAR-4 ovarian
RPMI-8226 leukemia = system: RPMI-8226 leukemia
RXF 393 renal = system: RXF 393 renal
SF-268 CNS = system: SF-268 CNS
SF-539 CNS = system: SF-539 CNS
SK-MEL-5 melanoma = system: SK-MEL-5 melanoma
SK-OV-3 ovarian = system: SK-OV-3 ovarian
SNB-19 CNS = system: SNB-19 CNS
SNB-75 CNS = system: SNB-75 CNS
SW-620 colon = system: SW-620 colon
T-47D breast = system: T-47D breast
TK-10 renal = system: TK-10 renal
U251 CNS = system: U251 CNS
UACC-62 melanoma = system: UACC-62 melanoma
UO-31 renal = system: UO-31 renal

How did the GI50 (786-0 renal) turn out when Nc1ccn(C2OC(CO)C3[O][Sn]([c]4ccccc4)([c]4ccccc4)[O]C32)c(=O)n1 (stereo not given) was run?
The GI50 was 0.656 µM.

And the GI50 (A549 NSCLC)?
The GI50 was 0.0344 µM.

What about the GI50 (ACHN renal) of the same molecule?
The GI50 was 0.361 µM.

And the GI50 (BT-549 breast)?
Its GI50 is 30.7 µM.

And the GI50 (CAKI-1 renal)?
The GI50 was 4.66 µM.

And the GI50 (COLO 205 colon)?
Its GI50 is 0.141 µM.

What about the GI50 (DU-145 prostate) of the same molecule?
Its GI50 is 0.149 µM.

What about the TGI (DU-145 prostate) of the same molecule?
Its TGI is 19.6 µM.

What about the GI50 (EKVX NSCLC) of the same molecule?
The GI50 was 34.2 µM.

And the GI50 (HCC-2998 colon)?
Its GI50 is 0.0629 µM.

And the TGI (HCC-2998 colon)?
The TGI was 17.9 µM.

What about the GI50 (HCT-116 colon) of the same molecule?
The GI50 was 0.024 µM.

What about the GI50 (HCT-15 colon) of the same molecule?
Its GI50 is 15 µM.

And the GI50 (HOP-62 NSCLC)?
Its GI50 is 1.51 µM.

And the GI50 (HS 578T breast)?
Its GI50 is 29.5 µM.

What about the GI50 (HT29 colon) of the same molecule?
Its GI50 is 1.45 µM.

What about the GI50 (K-562 leukemia) of the same molecule?
Its GI50 is 53.2 µM.

And the GI50 (KM12 colon)?
The GI50 was 35.5 µM.

What about the GI50 (MALME-3M melanoma) of the same molecule?
The GI50 was 17.9 µM.

And the GI50 (MCF7 breast)?
The GI50 was 0.0984 µM.

And the GI50 (MDA-MB-231 breast)?
The GI50 was 24.1 µM.

What about the TGI (MDA-MB-231 breast) of the same molecule?
Its TGI is 82.6 µM.

What about the GI50 (MDA-MB-435) of the same molecule?
The GI50 was 6.25 µM.

What about the GI50 (NCI-H23 lung) of the same molecule?
Its GI50 is 0.39 µM.

What about the GI50 (NCI-H460 lung) of the same molecule?
Its GI50 is 0.0187 µM.

What about the GI50 (NCI-H522 lung) of the same molecule?
The GI50 was 10.8 µM.

What about the TGI (NCI-H522 lung) of the same molecule?
The TGI was 29 µM.

What about the GI50 (NCI/ADR-RES ovarian) of the same molecule?
The GI50 was 4.73 µM.

What about the GI50 (OVCAR-3 ovarian) of the same molecule?
Its GI50 is 34.8 µM.

And the GI50 (OVCAR-4 ovarian)?
The GI50 was 43.1 µM.

And the GI50 (RPMI-8226 leukemia)?
Its GI50 is 13.7 µM.

And the TGI (RPMI-8226 leukemia)?
The TGI was 49.1 µM.

And the GI50 (RXF 393 renal)?
The GI50 was 1.73 µM.

What about the TGI (RXF 393 renal) of the same molecule?
The TGI was 22.3 µM.

And the GI50 (SF-268 CNS)?
The GI50 was 1.79 µM.

And the GI50 (SF-539 CNS)?
The GI50 was 2.17 µM.

What about the TGI (SF-539 CNS) of the same molecule?
Its TGI is 20.5 µM.

What about the GI50 (SK-MEL-5 melanoma) of the same molecule?
The GI50 was 3.75 µM.

What about the GI50 (SK-OV-3 ovarian) of the same molecule?
The GI50 was 26.6 µM.

What about the GI50 (SNB-19 CNS) of the same molecule?
Its GI50 is 3.34 µM.

What about the GI50 (SNB-75 CNS) of the same molecule?
Its GI50 is 14 µM.

What about the TGI (SNB-75 CNS) of the same molecule?
Its TGI is 50.1 µM.

And the GI50 (SW-620 colon)?
Its GI50 is 0.803 µM.

And the TGI (SW-620 colon)?
The TGI was 61.5 µM.

And the GI50 (T-47D breast)?
The GI50 was 15.3 µM.

What about the GI50 (TK-10 renal) of the same molecule?
Its GI50 is 32.3 µM.

And the GI50 (U251 CNS)?
Its GI50 is 0.617 µM.

And the TGI (U251 CNS)?
Its TGI is 22.8 µM.

And the GI50 (UACC-62 melanoma)?
The GI50 was 6.36 µM.

What about the GI50 (UO-31 renal) of the same molecule?
The GI50 was 0.221 µM.
